Counter-ions that a name gives are not always drawn. Marks after values point to notes of the source that are not given here.
Assays:
[1] = test system: isolated guinea pig lung strip; experiment: Bronchodilating effect on isolated guinea pig lung strip pre-contracted by histamine; format: cell-based
Protocol: Test method: Guinea pigs (Dunlin-Hartley, ca. 400 g) were used. After anesthesia, the chest was opened and sections of lung tissue about 3 mm in width, were dissected quickly from a lower lobe with the longitudinal axis of the strip cut parallel to the bronchus. The strips were further divided into two thin strips with approximate dimension of 20×3×3 mm. With threads attached to each end, strips were mounted in organ baths containing aerated Krebs solution at 37° C. A load of between 0.5-1.0 g force was applied by gentle stretching, and the tissue was allowed to equilibrate for 60 min with the solution changed at 20 min intervals. The lung strips were pre-contracted by 10^−5 M histamine, then an equal volume of solution containing R-bambuterol or racemic bambuterol was added cumulatively into the organ bath. The contractions of the lung strips were measured isometrically with force-displacement transducers and recorded.
Based on the pharmacokinetic studies of racemic bambuterol hydrochloride, about 50% of absorbed bambuterol is hydrolyzed to terbutaline, the active-parent form, in plasma. There is little cholinesterase in the lung strip preparation, so neither the test compound nor racemic bambuterol has significant effects. In order to test the compound of invention in vitro on isolated guinea-pig lung tissue, R-bambuterol and racemic bambuterol were administrated orally to guinea pigs at a dose of 8 mg/kg. Four hours later, blood was collected from the animals, and the serum containing the active parent form of the test compounds were prepared. The concentration of the active parent form, i.e. terbutaline, in serum measured using BPLC, was 64-70 ng/ml in the animal treated with R-bambuterol and 62-69 ng/ml in the animal treated with racemic bambuterol. The serum containing the active form of test compound was then added into the organ in a certain volume, so that the final concentration of the active forms of test compounds was 0.25 ng/ml in the organ bath. Concentration-response relationships were obtained using a cumulative dose schedule by adding the same volume of the serum into the organ bath. The test using the serum containing the active form of racemic bambuterol was done in parallel with the test compound in the same manner as described above.

hyperlipidemia mice = experiment: Lipid lowering effects in Tyloxapol-induced hyperlipidemia mice; format: in vivo; conditions: for TG lipid level: plasma 24 hours after Tyloxapol
Protocol: Test method: Male and […] mice, Kunming strain, 35 each, weight 18-22 grams, were used. Food and water were available ad libitum. The animals were randomized into 7 groups (n=10). Groups of animals were administered orafly, via a stomach tube, vehicle (distilled water, two groups), R-bambuterol hydrochloride (10 mg/kg and 5 mg/kg), racemic bambuterol hydrochloride (10 mg/kg and 5 mg/kg) and simvastatin (10 mg/kg) once a day for four days. With the exception of one vehicle—treated group (as control), Tyloxapol (400 mg/kg, Sigma Chemical Co.) was injected into the peritoneal cavity of the mice of all groups immediately after the last treatment on the fourth day in order to induce hyperlipidemia. All the animals were fasted overnight prior to the injection of Tyloxapol. Blood samples were collected by cardiac puncture 24 hours after the injection of Tyloxapol. The blood samples were processed to plasma, and concentration of triglycerides (TG), cholesterol (CHO), high density lipoprotein (HDL), low density lipoprotein (LDL) and very low density lipoprotein (VLDL) were measured with an autoblood analyzer (Olympic, Japan).

[2] = test system: sensitized conscious guinea pigs exposed to aerosol ovalbumin; experiment: Protection against allergic bronchospasm in ovalbumin-sensitized conscious guinea pigs; format: in vivo, guinea pig
Protocol: Test method: Guinea pigs (Dunkin-Hartley strain, 200±10 g, equal sexes) were used in this study. Ovalbumin (5%) solution was injected into guinea pigs subcutaneously and intraperitoneally to sensitize the animals. Male and female sensitized animals were kept separately for 14 days, and food and water was available ad libitum. On day 14 after sensitization, animals were randomized into groups of 8 each. The animals were treated orally with saline (control) or various concentrations of R-bambuterol or racemic bambuterol in saline. Four hours after the treatment, each animal was restrained in a glass chamber. After stabilization the animal was exposed to an aerosol of ovalbumin generated by a nebulizer from a 5% solution of ovalbumine at a rate of 0.5 ml/min for a period of 15 seconds. The animal was removed from the chamber, and the behavior of the animal was monitored. The number of the sensitized animals which collapsed were counted, and the latency time, i.e. the time from the exposure to aerosol ovalbumin to the collapse of the animal, was recorded.

[3] = test system: conscious guinea pigs exposed to aerosol histamine; experiment: Protection against histamine-evoked asthma in conscious guinea pigs; format: in vivo, guinea pig; conditions: for Collapsed n: 8 animals; for Potency relative to racemic bambuterol: bronchospasmolytic / protective effect, hydrochloride; for % collapse / Latency time of collapse: dose-response, four hours before exposure
Protocol: Test methods: Guinea pigs (Dunki-Hartley strain, 190±30 g) were fasted overnight but given water ad libidum. The animals were restrained individually in a glass chamber and exposed to aerosol histamine generated by a nebulizer from a 0.2% aqueous solution of histamine under constant pressure at dose of 0.5 ml/min for a period of 15 sec. The animal was removed from the chamber, and its behavior was monitored. A sign of collapse and the latency time from exposure to collapse were recorded. Only the animals with latency time less than 120 sec, as an indication of sensitive to histamine, were chosen for later experiments. The animals chosen were allowed to recover completly by resting for 24 hours before experiments. Test compounds and racemic bambuterol hydrochloride were dissolved in saline.
Time course of the effect of test compounds: R-Bambuterol hydrochloride or racemic bambuterol hydrochloride at 2, 4 and 8 mg/kg, and vehicle alone, were administered to the guinea pigs orally via a stomach tube. Exposure of treated animals to aerosol histamine (as above) was done at 1, 4 and 24 hours after treatment. For each experimental group, there were a total of 8 animals with equal number of both sexes, and no repeated exposure was made for individual experimental animals.
Study of dose-response of test compounds: Four hours before the exposure to aerosol histamine, animals were randomized into groups (n=8, equal male and female), and given R-bambuterol hydrochloride or racemic bambuterol in doses of 0.25, 0.5, 1.0, 2.0, 4.0 and 8.0 mg/kg, and vehicle control, orally via a stomach tube. The numbers of collapsed animal as a result of asthmatic reaction to aerosol histamine were counted, and the latency times were recorded. Both of these parameters were used as quantitative measurements of the protective effects of the treatments on bronchospasm evoked by aerosol histamine.

rats = experiment: Cardiovascular effects in anesthetized rats; format: in vivo; conditions: both, Sprague Dawley, rat, in vivo, 20 min
Source text: Test method: Rats (Sprague Dawley, 250-300 g) were randomized into two groups (n=6, equal sexes). After anesthesia, plastic tubing was introduced into a carotid artery of each animal and connected to pressure transducers to record mean artery pressure (MBP) and heart rate (HR). Another tube was introduced into the left ventricular chamber via the another carotid artery and connected to a pressure transducer. Left ventricular systolic pressure (LVSP) and the first order of differential of LVSP (dp/dt) as an index for inotropic effects were recorded. R-Bambuterol and racemic bambuterol hydrochloride were dissolved in saline and administrated intravenously at 30 mg/kg to each animal. The HR, MBP and Max dp/dt were measured before treatment (control) and after the treatments when the maximum response occurred, and 20 min after treatment as indication of recovery.

β-2 receptor = conditions: Hartley and Middlemis 1971; cited from earlier work
[4] = 0.25 ng/ml active form in organ bath, 10^−5 M histamine pre-contraction
[5] = Tyl + 10 mg (10 mg/kg oral once a day for four days)

In the case of `CC(C)(C)NCC(O)c1cc(O)cc(O)c1` (racemic) [Active form of RS-bambuterol, racemic terbutaline], the “Percent of Relaxation” value [1, 4] is reported as 7.6 ± 0.8%, the “Percent of Relaxation” value ([1]; 0.50 ng/ml active form) is reported as 10.8 ± 2.1% and the “Percent of Relaxation” value ([1]; 0.75 ng/ml active form) is reported as 26.5 ± 3.4%. The “Percent of Relaxation” value ([1]; 1.00 ng/ml active form) was 39.6 ± 4.0% and the “Percent of Relaxation” value ([1]; 1.25 ng/ml active form) was 45.7 ± 6.7%.

In the case of `CC(C)(C)NC[C@H](O)c1cc(O)cc(O)c1` [Active form of R-bambuterol, R-terbutaline], the “Percent of Relaxation” value [1, 4] is reported as 12.4 ± 1.3%, the “Percent of Relaxation” value ([1]; 0.50 ng/ml active form) is reported as 19.5 ± 2.2% and the “Percent of Relaxation” value ([1]; 0.75 ng/ml active form) is reported as 43.7 ± 1.8%. For the same compound, the “Percent of Relaxation” value ([1]; 1.00 ng/ml active form) was 60.1 ± 5.7% and the “Percent of Relaxation” value ([1]; 1.25 ng/ml active form) was 75.6 ± 8.4%.

In the case of `CN(C)C(=O)Oc1cc(OC(=O)N(C)C)cc([C@@H](O)CNC(C)(C)C)c1` [R-bambuterol, R-Bambuterol hydrochloride], the CHO lipid level (hyperlipidemia mice; Tyl + 5 mg) is reported as 189 ± 83 mg/dL, the HDL lipid level (hyperlipidemia mice; Tyl + 5 mg) is reported as 42 ± 27 mg/dL and the LDL lipid level (hyperlipidemia mice; Tyl + 5 mg) is reported as 34 ± 15 mg/dL. The VLDL lipid level (hyperlipidemia mice; Tyl + 5 mg) was 50 ± 26 mg/dL, the TG lipid level (hyperlipidemia mice; Tyl + 5 mg (5 mg/kg oral once a day for four days)) was 323 ± 176 mg/dL and the CHO lipid level (hyperlipidemia mice; Tyl + 10 mg) was 119 ± 16 mg/dL. The HDL lipid level (hyperlipidemia mice; Tyl + 10 mg) was 53.3 ± 6.7 mg/dL, the LDL lipid level (hyperlipidemia mice; Tyl + 10 mg) was 29 ± 5 mg/dL and the VLDL lipid level (hyperlipidemia mice; Tyl + 10 mg) was 35 ± 7 mg/dL. For the same compound, the TG lipid level (hyperlipidemia mice; [5]) was 105 ± 18 mg/dL, the “% collapsed” value ([2]; 1 mg/kg oral) was 63% and the Latency time ([2]; 1 mg/kg oral) was 193 ± 30 s. For the same compound, the Number collapsed ([2]; 1 mg/kg oral (n = 8), four hours before aerosol ovalbumin) was 5, the “% collapsed” value ([2]; 4 mg/kg oral) was 25% and the Latency time ([2]; 4 mg/kg oral) was 293 ± 27 s. The Number collapsed ([2]; 4 mg/kg oral (n = 8)) was 2, the “% collapsed” value ([2]; 8 mg/kg oral) was 0% and the Latency time ([2]; 8 mg/kg oral) was >360*# sec. For the same compound, the Collapsed % ([3]; 2 mg/kg oral, 1st Hour) was 50.0* %, the Latency ([3]; 2 mg/kg oral, 1st Hour) was 231 ± 70 s and the Collapsed n ([3]; 2 mg/kg oral, 1st Hour) was 4.0. For the same compound, the Collapsed % ([3]; 2 mg/kg oral, 4th Hour) was 25.0* %, the Latency ([3]; 2 mg/kg oral, 4th Hour) was 295 ± 65 s and the Collapsed n ([3]; 2 mg/kg oral, 4th Hour) was 2.0. For the same compound, the Collapsed % ([3]; 2 mg/kg oral, 24th Hour) was 62.5%, the Latency ([3]; 2 mg/kg oral, 24th Hour) was 202 ± 67 s and the Collapsed n ([3]; 2 mg/kg oral, 24th Hour) was 5.0. The Collapsed % ([3]; 4 mg/kg oral, 1st Hour) was 37.5* %, the Latency ([3]; 4 mg/kg oral, 1st Hour) was 258 ± 71 s and the Collapsed n ([3]; 4 mg/kg oral, 1st Hour) was 3.0. For the same compound, the Collapsed % ([3]; 4 mg/kg oral, 4th Hour) was 0.0* %, the Latency ([3]; 4 mg/kg oral, 4th Hour) was greater than 360 s and the Collapsed n ([3]; 4 mg/kg oral, 4th Hour) was 0.0. It also gave a Collapsed % ([3]; 4 mg/kg oral, 24th Hour) of 50.0%, a Latency ([3]; 4 mg/kg oral, 24th Hour) of 242 ± 64 s and a Collapsed n ([3]; 4 mg/kg oral, 24th Hour) of 4.0. The Collapsed % ([3]; 8 mg/kg oral, 1st Hour) was 25.0%, the Latency ([3]; 8 mg/kg oral, 1st Hour) was 299 ± 57 s and the Collapsed n ([3]; 8 mg/kg oral, 1st Hour) was 2.0. It also gave a Collapsed % ([3]; 8 mg/kg oral, 4th Hour) of 0.0%, a Latency ([3]; 8 mg/kg oral, 4th Hour) greater than 360 s and a Collapsed n ([3]; 8 mg/kg oral, 4th Hour) of 0.0. It also gave a Collapsed % ([3]; 8 mg/kg oral, 24th Hour) of 37.5%, a Latency ([3]; 8 mg/kg oral, 24th Hour) of 256 ± 72 s and a Collapsed n ([3]; 8 mg/kg oral, 24th Hour) of 3.0. The ED50 ([3]; Cavia porcellus, 4 h, oral, four hours before aerosol histamine, read-out: ED50 (protection against collapse)) was 0.91 mg/kg, the “Potency relative to racemic bambuterol” value ([3]; oral) was “about twice” and the “Potency relative to racemic bambuterol” value ([3]; oral, listed as R enantiomer of bambuterol) was “about twice”. For the same compound, the “Potency relative to racemic bambuterol” value ([3]; oral, listed as R-Bambuterol) was “about twice”, the “% collapse” value ([3]; 0.25 mg/kg oral) was 87.5% and the “Latency time of collapse” value ([3]; 0.25 mg/kg oral) was 110 s. For the same compound, the “% collapse” value ([3]; 0.5 mg/kg oral) was 75%, the “Latency time of collapse” value ([3]; 0.5 mg/kg oral) was 160 s and the “% collapse” value ([3]; 1 mg/kg oral) was 50%. The “Latency time of collapse” value ([3]; 1 mg/kg oral) was 209 s, the “% collapse” value ([3]; 2 mg/kg oral) was 25% and the “Latency time of collapse” value ([3]; 2 mg/kg oral) was 295 s. For the same compound, the “% collapse” value ([3]; 4 mg/kg oral) was 0%, the “Latency time of collapse” value ([3]; 4 mg/kg oral) was greater than 360 s and the “% collapse” value ([3]; 8 mg/kg oral) was 0%. The “Latency time of collapse” value ([3]; 8 mg/kg oral) was greater than 360 s, the “Onset of protective effects after administration” value ([3]; oral 2 to 8 mg/kg) was “one” and the “Time of maximum protective effects after administration” value ([3]; oral 2 to 8 mg/kg) was 4 h. The “Dose at which full protective effect was seen” value ([3]; oral, collapse after aerosol histamine) was 4 mg/kg, the “Dose at which maximum effects on latency were seen” value ([3]; oral, latency time to collapse) was 4 mg/kg and the “HR 20 min after Δ, % of Control” value (rats) was 3.7%. The “Maxdp/dt 20 min after Δ, % of control” value (rats) was 5.0%.

In the case of `CC(C)(C)NC[C@H](O)c1ccc(O)c(CO)c1` [R-enantiomer of albuterol, albuterol], the “Potency as β-2 receptor agonist relative to the S-enantiomer” value (β-2 receptor) is listed as “approximately 80 times”.

`CCC(C)(C)C(=O)O[C@H]1C[C@@H](C)C=C2C=C[C@H](C)[C@H](CC[C@@H]3C[C@@H](O)CC(=O)O3)[C@H]21` [simvastatin] gave a CHO lipid level (hyperlipidemia mice; Tyl + 10 mg) of 176 ± 64 mg/dL, an HDL lipid level (hyperlipidemia mice; Tyl + 10 mg) of 49 ± 16 mg/dL and an LDL lipid level (hyperlipidemia mice; Tyl + 10 mg) of 42 ± 11 mg/dL. For the same compound, the VLDL lipid level (hyperlipidemia mice; Tyl + 10 mg) was 85 ± 50 mg/dL and the TG lipid level (hyperlipidemia mice; [5]) was 311 ± 187 mg/dL.

Reference: patent publication US7495028B2, “R-bambuterol, its preparation and therapeutic uses” (priority 2002, dated 2009)
